This is an account of results in publication PMC9037311 (RSC Advances, 2021).

A short description of the data set: Pharmacokinetic study after oral administration to rats. The format is in vivo, Sprague-Dawley male rats.

Structures are written as SMILES.

For the molecule `O=C([O-])Cc1ccccc1Nc1c(Cl)cccc1Cl.[K+]` [DCFP, Diclofenac potassium], under “25 mg kg^−1”, the “AUC(0–t)” value was determined as 53.99 ± 3.18 mg/L/h; the “AUC(0–∞)” value came to 59.22 ± 5.23 mg/L/h; the Cmax (in general, the maximum level reached in the sampled fluid or tissue) came out at 15520 ± 1050 ng/mL. In addition, the blood drug concentration entry (at 10 h) is reported as “nearly undetectable”. The blood drug concentration result (within 1 h) was “not detectable”.
